Test results from BindingDB's records for doi:10.1016/j.bmcl.2010.08.063 (Merck Research Laboratories, 2010).

Test: Positive modulation of GluR1

Row | SMILES | EC50
1 | O=C(Cn1nc(C(F)(F)F)c2c1CCCC2)Nc1sc2c(c1C(=O)N[C@@H]1CCNC1)CCCC2 | 251 nM
2 | O=C(Cn1nc(C(F)(F)F)c2c1CCCC2)Nc1sc2c(c1CO)CCCC2 | 251 nM
3 | NCc1cn(CC(=O)Nc2sc3c(c2C(N)=O)CCCC3)nc1C(F)(F)F | 794 nM
4 | CCN(CC)Cc1cn(CC(=O)Nc2sc3c(c2C(N)=O)CCCC3)nc1C(F)(F)F | 631 nM
5 | NC(=O)c1c(NC(=O)Cn2cc(CNC3CC3)c(C(F)(F)F)n2)sc2c1CCCC2 | 631 nM
6 | NC(=O)c1c(NC(=O)Cn2cc(CN3CCC3)c(C(F)(F)F)n2)sc2c1CCCC2 | 1000 nM
7 | CNCc1cn(CCC(=O)Nc2sc3c(c2C(N)=O)CCCC3)nc1C(F)(F)F | 1580 nM
8 | CCN(CC)Cc1cn(CCC(=O)Nc2sc3c(c2C(N)=O)CCCC3)nc1C(F)(F)F | 2000 nM
9 | NC(=O)c1c(NC(=O)Cn2nc(C(F)(F)F)c3c2CCNC3)sc2c1CCCC2 | 1000 nM
10 | CNCc1cn(CC(=O)Nc2sc3c(c2C(=O)NC)CCCC3)nc1C(F)(F)F | 1580 nM

Next, values leading:

Row | EC50 | SMILES
11 | 126 nM | CNCc1cn(CC(=O)Nc2sc3c(c2C(N)=O)CCCC3)nc1C(F)(F)F
12 | 794 nM | CCNCc1cn(CC(=O)Nc2sc3c(c2C(N)=O)CCCC3)nc1C(F)(F)F
13 | 501 nM | CN(C)Cc1cn(CC(=O)Nc2sc3c(c2C(N)=O)CCCC3)nc1C(F)(F)F
14 | 3160 nM | CC(C)NCc1cn(CC(=O)Nc2sc3c(c2C(N)=O)CCCC3)nc1C(F)(F)F
15 | 1580 nM | COCCNCc1cn(CC(=O)Nc2sc3c(c2C(N)=O)CCCC3)nc1C(F)(F)F
16 | 316 nM | CNCc1cn(CC(=O)Nc2sc3c(c2C(N)=O)CCCC3)nc1C(C)(C)C
17 | 316 nM | CN(C)Cc1cn(CC(=O)Nc2sc3c(c2C(N)=O)CCCC3)nc1C(C)(C)C
18 | 1580 nM | CC(C)(C)c1nn(CC(=O)Nc2sc3c(c2C(N)=O)CCCC3)cc1CNC1CC1
19 | 794 nM | CCNCc1cn(CC(=O)Nc2sc3c(c2C(N)=O)CCCC3)nc1C(C)(C)C
20 | 1580 nM | CC(C)NCc1cn(CC(=O)Nc2sc3c(c2C(N)=O)CCCC3)nc1C(C)(C)C
21 | 2510 nM | CCNCc1cn(CCC(=O)Nc2sc3c(c2C(N)=O)CCCC3)nc1C(F)(F)F
